From US7851474B2, “Dipiperazinyl ketones and related analogues” (Neurogen Corporation, priority 2005, dated 2010)

target: T1, chimeric human H3 receptor (Homo sapiens, UniProt Q9Y5N1, E19D); assay: Chimeric human H3 receptor GTP binding assay (agonist-stimulated GTP-gamma35S binding, Example 7); type: biochemical; settings: not given
T1 construct: made in house; host or cells: Sf9 insect cells (baculovirus infection); P2 membrane preparation
Description: This Example illustrates a representative assay for evaluating agonist-stimulated GTP-gamma^35S binding (“GTP binding”) activity. […] This agonist-stimulated GTP binding activity can also be used to detect partial agonism mediated by antagonist compounds. A compound analyzed in this assay is referred to herein as a “test compound.”
Four independent baculoviral stocks (one directing the expression of the chimeric human H3 receptor and three directing the expression of each of the three subunits of a heterotrimeric G-protein) are used to infect a culture of Sf9 cells as described above. P2 membranes are prepared as described above, and agonist-stimulated GTP binding on the P2 membranes is assessed using histamine (Sigma Chemical Co., St. Louis, Mo.) as agonist in order to ascertain that the receptor/G-protein-alpha-beta-gamma combination(s) yield a functional response as measured by GTP binding. P2 membranes are resuspended by Dounce homogenization (tight pestle) in GTP binding assay buffer (50 mM Tris pH 7.4, 120 mM NaCl, 5 mM MgCl2, 2 mM EGTA, 1 mg/ml BSA, 0.2 mg/ml bacitracin, 0.02 mg/ml aprotinin, 0.01 mg/ml saponin, 10 μM GDP) and added to assay tubes at a concentration of 35 μg protein/reaction tube. […] In competition experiments, non-radiolabeled test compounds are added to separate reactions at concentrations ranging from 10^−10 M to 10^−6 M along with 1 μM histamine to yield a final volume of 0.20 ml.
Neutral antagonists are antagonists that are substantially free of inherent agonist activity, and include those test compounds that reduce the histamine-stimulated GTP binding activity towards, but not below, baseline levels. In contrast, in the absence of added histamine, inverse agonists reduce the GTP binding activity of the receptor-containing membranes below baseline.
After a 60-min incubation at room temperature, reactions are terminated by vacuum filtration over WHATMAN GF/C filters (pre-soaked in wash buffer, 0.1% BSA) followed by washing with ice-cold wash buffer (50 mM Tris pH 7.4, 120 mM NaCl). The amount of receptor-bound (and thereby membrane-bound) GTP-gamma^35S is determined by measuring the filter-bound radioactivity, preferably by liquid scintillation spectrometry of the washed filters. […] Data is expressed as percent above basal (baseline). The results of GTP binding experiments are analyzed using SIGMAPLOT software (SPSS Inc., Chicago, Ill.).
IC50 values are calculated by non-linear regression analysis of dose-response curves using Kaleidograph (Synergy Software, Reading, Pa.).

T1 sequence (Q9Y5N1 with tags, fused parts or gaps E19D): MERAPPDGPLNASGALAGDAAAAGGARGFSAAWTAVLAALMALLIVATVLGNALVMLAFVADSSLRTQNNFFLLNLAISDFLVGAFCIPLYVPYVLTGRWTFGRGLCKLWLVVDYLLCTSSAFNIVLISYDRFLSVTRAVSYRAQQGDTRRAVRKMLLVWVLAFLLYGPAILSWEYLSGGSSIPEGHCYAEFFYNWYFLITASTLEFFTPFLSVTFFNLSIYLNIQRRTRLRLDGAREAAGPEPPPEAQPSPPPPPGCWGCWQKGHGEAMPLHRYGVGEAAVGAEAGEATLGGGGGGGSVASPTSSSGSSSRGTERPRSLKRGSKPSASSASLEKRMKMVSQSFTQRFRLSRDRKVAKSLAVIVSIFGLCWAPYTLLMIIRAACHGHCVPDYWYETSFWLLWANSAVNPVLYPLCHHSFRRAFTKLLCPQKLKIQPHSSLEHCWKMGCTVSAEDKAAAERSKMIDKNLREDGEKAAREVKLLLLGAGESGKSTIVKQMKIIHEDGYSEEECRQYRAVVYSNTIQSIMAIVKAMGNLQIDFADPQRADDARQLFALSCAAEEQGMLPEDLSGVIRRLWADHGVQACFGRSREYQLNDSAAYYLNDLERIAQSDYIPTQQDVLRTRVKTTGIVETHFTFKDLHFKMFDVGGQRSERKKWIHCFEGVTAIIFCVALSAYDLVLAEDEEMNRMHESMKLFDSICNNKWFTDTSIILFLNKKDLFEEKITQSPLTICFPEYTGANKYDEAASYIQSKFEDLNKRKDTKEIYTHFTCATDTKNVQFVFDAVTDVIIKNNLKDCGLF

SMILES | Ki
CCCCN1CCN(C(=O)CN2CCN(c3ccc(C(F)(F)F)cc3)CC2)CC1 [Compound 496, 1-butyl-4-({4-[4-(trifluoromethyl)phenyl]piperazin-1-yl}acetyl)piperazine] | < 1000 nM
CCN1CCN(C(=O)CN2CCN(c3ccc(Cl)cc3)CC2)CC1 [Compound 359, 1-(4-chlorophenyl)-4-[2-(4-ethylpiperazin-1-yl)-2-oxoethyl]piperazine] | < 1000 nM
CC(C)N1CCN(C(=O)CN2CCN(c3ccccc3)CC2)CC1 [Compound 847, 1-isopropyl-4-[(4-phenylpiperazin-1-yl)acetyl]piperazine] | < 1000 nM

same assay, conditions: "*" in Ki of Table II; assay of Example 7; read-out: Ki

Ki | SMILES
< 1000 nM | O=C(CN1CCC(N2CCCCCC2)CC1)N1CCN(C2CCC2)CC1 [Compound 479, 1-{1-[2-(4-cyclobutylpiperazin-1-yl)-2-oxoethyl]piperidin-4-yl}azepane]
< 1000 nM | O=C(CN1CCN(c2ccc(-c3cc(C(F)(F)F)cc(C(F)(F)F)c3)cc2)CC1)N1CCN(C2CCC2)CC1 [Compound 457, 1-[3′,5′-bis(trifluoromethyl)biphenyl-4-yl]-4-[2-(4-cyclobutylpiperazin-1-yl)-2-oxoethyl]piperazine]

same assay, conditions: Table II "Ki", symbol "*": Ki in the assay of Example 7; read-out: Ki

Ki | SMILES
< 1000 nM | Cc1ccc(-c2cnc(N3CCN(CC(=O)N4CCN(C5CCC5)CC4)CC3)cn2)c(F)c1 [Compound 920, 2-{4-[2-(4-cyclobutylpiperazin-1-yl)-2-oxoethyl]piperazin-1-yl}-5-(2-fluoro-4-methylphenyl)pyrazine]
< 1000 nM | CC(C)N1CCN(C(=O)CN2CCN(c3ccc(C(F)(F)F)cn3)CC2)CC1 [Compound 846, 1-isopropyl-4-({4-[5-(trifluoromethyl)pyridin-2-yl]piperazin-1-yl}acetyl)piperazine]
< 1000 nM | CCC(C)N1CCN(C(=O)CN2CCN(c3c(C)cccc3C)CC2)CC1 (stereo not shown) [Compound 865, 1-sec-butyl-4-{[4-(2,6-dimethylphenyl)piperazin-1-yl]acetyl}piperazine]
< 1000 nM | CCC(C)N1CCN(C(=O)CN2CCN(c3ccc(Cl)c(C(F)(F)F)c3)CC2)CC1 (stereo not shown) [Compound 855, 1-sec-butyl-4-({4-[4-chloro-3-(trifluoromethyl)phenyl]piperazin-1-yl}acetyl)piperazine]
< 1000 nM | CC(C)N1CCN(C(=O)CN2CCN(C(=O)C3CCCO3)CC2)CC1 (stereo not shown) [Compound 852, 1-isopropyl-4-{[4-(tetrahydrofuran-2-ylcarbonyl)piperazin-1-yl]acetyl}piperazine]

same assay, conditions: Table II, "*" in Ki; assay of Example 7; read-out: Ki

Ki | SMILES
< 1000 nM | Cc1noc(-c2ccc(N3CCN(CC(=O)N4CCN(C5CCC5)CC4)CC3)cc2)n1 [Compound 594, 1-cyclobutyl-4-({4-[4-(3-methyl-1,2,4-oxadiazol-5-yl)phenyl]piperazin-1-yl}acetyl)piperazine]
< 1000 nM | O=C(CN1CCN(c2ccc(-c3ccc(F)cc3F)cc2)CC1)N1CCN(C2CCC2)CC1 [Compound 676, 1-cyclobutyl-4-{[4-(2′,4′-difluorobiphenyl-4-yl)piperazin-1-yl]acetyl}piperazine]
< 1000 nM | O=C(CN1CCN(c2ccc(C(=O)N3CCCC3)cn2)CC1)N1CCN(C2CCC2)CC1 [Compound 611, 1-cyclobutyl-4-({4-[5-(pyrrolidin-1-ylcarbonyl)pyridin-2-yl]piperazin-1-yl}acetyl)piperazine]

same assay, conditions: Table II; assay of Example 7; "*" in Ki; read-out: Ki

SMILES | Ki
CCN(CC)C(=O)c1ccc(N2CCN(CC(=O)N3CCN(C4CCC4)CC3)CC2)cc1 [Compound 1125, 4-{4-[2-(4-cyclobutylpiperazin-1-yl)-2-oxoethyl]piperazin-1-yl}-N,N-diethylbenzamide] | < 1000 nM
O=C(CN1CCN(c2ccc(-c3ccc(Cl)c(F)c3)nn2)CC1)N1CCN(C2CCC2)CC1 [Compound 990, 3-(4-chloro-3-fluorophenyl)-6-{4-(2-(4-cyclobutylpiperazin-1-yl)-2-oxoethyl]piperazin-1-yl}pyridazine] | < 1000 nM
COc1ccc(-c2ccc(N3CCN(CC(=O)N4CCN(C5CCC5)CC4)CC3)nn2)cc1 [Compound 1032, 3-{4-[2-(4-cyclobutylpiperazin-1-yl)-2-oxoethyl]piperazin-1-yl}-6-(4-methoxyphenyl) pyridazine] | < 1000 nM
CC1CCCN1C(=O)c1ccc(N2CCN(CC(=O)N3CCN(C4CCC4)CC3)CC2)nn1 (stereo not shown) [Compound 1064, 3-{4-[2-(4-cyclobutylpiperazin-1-yl)-2-oxoethyl]piperazin-1-yl}-6-[(2-methylpyrrolidin-1-yl)carbonyl]pyridazine] | < 1000 nM
Cc1cc(-c2ccc(N3CCN(CC(=O)N4CCN(C5CCC5)CC4)CC3)nn2)ccc1F [Compound 1010, 3-{4-[2-(4-cyclobutylpiperazin-1-yl)-2-oxoethyl]piperazin-1-yl}-6-(4-fluoro-3-methylphenyl)pyridazine] | < 1000 nM

Second part, the molecule after the results:

Ki | SMILES
< 1000 nM | CC(C)CNC(=O)c1ccc(N2CCN(CC(=O)N3CCN(C4CCC4)CC3)CC2)cc1 [Compound 1134, 4-{4-[2-(4-cyclobutylpiperazin-1-yl)-2-oxoethyl]piperazin-1-yl}-N-isobutylbenzamide]
< 1000 nM | CC(C)c1ccccc1-c1ccc(N2CCN(CC(=O)N3CCN(C4CCC4)CC3)CC2)nn1 [Compound 1058, 3-{4-[2-(4-cyclobutylpiperazin-1-yl)-2-oxoethyl]piperazin-1-yl}-6-(2-isopropylphenyl) pyridazine]
< 1000 nM | O=C(CN1CCN(c2cnc(-c3ccc(C(F)(F)F)cc3)cn2)CC1)N1CCN(C2CCC2)CC1 [Compound 975, 2-{4-[2-(4-cyclobutylpiperazin-1-yl)-2-oxoethyl]piperazin-1-yl}-5-[4-(trifluoromethyl)phenyl] pyrazine]
< 1000 nM | CCC(C)N1CCN(C(=O)CN2CCN(c3ncc(F)cn3)CC2)CC1 (stereo not shown) [Compound 979, 2-{4-[2-(4-sec-butylpiperazin-1-yl)-2-oxoethyl]piperazin-1-yl}-5-fluoropyrimidine]

same assay, conditions: assay of Example 7; "*" in Ki of Table II; read-out: Ki

Ki | SMILES
< 1000 nM | CN(C(=O)c1ccc(N2CCN(CC(=O)N3CCN(C4CCC4)CC3)CC2)nc1)C1CCCCC1 [Compound 1170, 6-{4-[2-(4-cyclobutylpiperazin-1-yl)-2-oxoethyl]piperazin-1-yl}-N-cyclohexyl-N-methylnicotinamide]
< 1000 nM | CSc1ccc(C(=O)NC2CCN(CC(=O)N3CCN(C4CCC4)CC3)CC2)cc1 [Compound 1222, N-{1-[2-(4-cyclobutylpiperazin-1-yl)-2-oxoethyl]piperidin-4-yl}-4-(methylthio)benzamide]
< 1000 nM | CN1Cc2cc(N3CCN(CC(=O)N4CCN(C5CCC5)CC4)CC3)ccc2C1=O [Compound 1155, 5-{4-[2-(4-cyclobutylpiperazin-1-yl)-2-oxoethyl]piperazin-1-yl}-2-methylisoindolin-1-one]
< 1000 nM | CCCCNC(=O)c1ccc(N2CCN(CC(=O)N3CCN(C4CCC4)CC3)CC2)cc1 [Compound 1264, N-butyl-4-{4-[2-(4-cyclobutylpiperazin-1-yl)-2-oxoethyl]piperazin-1-yl}benzamide]
< 1000 nM | CCC(C)NC(=O)c1cccc(N2CCN(CC(=O)N3CCN(C4CCC4)CC3)CC2)c1 (stereo not shown) [Compound 1203, N-(sec-butyl)-3-{4-[2-(4-cyclobutylpiperazin-1-yl)-2-oxoethyl]piperazin-1-yl}benzamide]

same assay, conditions: assay of Example 7; symbol * in column headed Ki of Table II; read-out: Ki

Ki | SMILES
< 1000 nM | COc1cc(Br)c(CC(=O)N2CCN(CC(=O)N3CCN(C4CCC4)CC3)CC2)cc1OC [Compound 378, 1-[(2-bromo-4,5-dimethoxyphenyl)acetyl]-4-[2-(4-cyclobutylpiperazin-1-yl)-2-oxoethyl]piperazine]
< 1000 nM | CC(C)N1C(=O)c2ccccc2C12CCN(CC(=O)N1CCN(C3CCC3)CC1)CC2 [Compound 426, 1-[2-(4-cyclobutylpiperazin-1-yl)-2-oxoethyl]-2-isopropylspiro[isoindole-1,4′-piperidin]-3(2H)-one]
< 1000 nM | Cc1cccc(C)c1N1CCN(CC(=O)N2CCN(C(C)C)CC2)CC1 [Compound 268, 1-(2,6-dimethylphenyl)-4-[2-(4-isopropylpiperazin-1-yl)-2-oxoethyl]piperazine]
< 1000 nM | O=C(CN1CCN(c2ccc(-c3cccc(Cl)c3)cc2)CC1)N1CCN(C2CCC2)CC1 [Compound 300, 1-(3′-chlorobiphenyl-4-yl)-4-[2-(4-cyclobutylpiperazin-1-yl)-2-oxoethyl]piperazine]
